Consider three molecules from PubChem BioAssay AID1259407 (Chemical Carcinogenesis Research Information System (CCRIS), 2018).

The data set concerns CCRIS mutagenicity, Ames/micronucleus/aberration tests. Put plainly: CCRIS mutagenicity studies. The conditions noted are these: Test System: AMES SALMONELLA TYPHIMURIUM
[1] abbreviates: Strain/Indicator: TA1537, Metabolic Activation: NONE, Method: STANDARD PLATE.

Active and inactive are the calls of the source. The rule behind the calls is not given here.

As to `C=CCOC(=O)C=C`, the mutagenic call reads like this: (Strain/Indicator: TA97, Metabolic Activation: HAMSTER, LIVER, S-9, AROCLOR 1254 (10 OR 30%), Method: PREINCUBATION) “inactive; negative”; (Strain/Indicator: TA97, Metabolic Activation: NONE, Method: PREINCUBATION) “inactive; negative”; (Strain/Indicator: TA97, Metabolic Activation: RAT, LIVER, S-9, AROCLOR 1254 (10 OR 30%), Method: PREINCUBATION) “inactive; negative”; (Strain/Indicator: TA98, Metabolic Activation: HAMSTER, LIVER, S-9, AROCLOR 1254 (10%), Method: PREINCUBATION) “inactive; negative”; (Strain/Indicator: TA98, Metabolic Activation: HAMSTER, LIVER, S-9, AROCLOR 1254 (30%), Method: PREINCUBATION) “inactive; negative”; (Strain/Indicator: TA98, Metabolic Activation: NONE, Method: PREINCUBATION) “inactive; negative”. The mutagenic call is “inactive; negative” (Strain/Indicator: TA98, Metabolic Activation: RAT, LIVER, S-9, AROCLOR 1254 (10%), Method: PREINCUBATION); “inactive; negative” (Strain/Indicator: TA98, Metabolic Activation: RAT, LIVER, S-9, AROCLOR 1254 (30%), Method: PREINCUBATION); “inactive; negative” (Strain/Indicator: TA100, Metabolic Activation: HAMSTER, LIVER, S-9, AROCLOR 1254 (10%), Method: PREINCUBATION); “inactive; negative” (Strain/Indicator: TA100, Metabolic Activation: HAMSTER, LIVER, S-9, AROCLOR 1254 (30%), Method: PREINCUBATION); “inactive; negative” (Strain/Indicator: TA100, Metabolic Activation: NONE, Method: PREINCUBATION); “inactive; negative” (Strain/Indicator: TA100, Metabolic Activation: RAT, LIVER, S-9, AROCLOR 1254 (10%), Method: PREINCUBATION). Further, the mutagenic call runs as follows: (Strain/Indicator: TA100, Metabolic Activation: RAT, LIVER, S-9, AROCLOR 1254 (30%), Method: PREINCUBATION) “inactive; negative”; (Strain/Indicator: TA1535, Metabolic Activation: HAMSTER, LIVER, S-9, AROCLOR 1254 (10%), Method: PREINCUBATION) “inactive; negative”; (Strain/Indicator: TA1535, Metabolic Activation: HAMSTER, LIVER, S-9, AROCLOR 1254 (30%), Method: PREINCUBATION) “inactive; negative”; (Strain/Indicator: TA1535, Metabolic Activation: NONE, Method: PREINCUBATION) “inactive; negative”; (Strain/Indicator: TA1535, Metabolic Activation: RAT, LIVER, S-9, AROCLOR 1254 (10%), Method: PREINCUBATION) “inactive; negative”; (Strain/Indicator: TA1535, Metabolic Activation: RAT, LIVER, S-9, AROCLOR 1254 (30%), Method: PREINCUBATION) “inactive; negative”. The mutagenic call is “inactive; negative” (Strain/Indicator: TA1537, Metabolic Activation: HAMSTER, LIVER, S-9, AROCLOR 1254 (10%), Method: PREINCUBATION); “inactive; negative” (Strain/Indicator: TA1537, Metabolic Activation: NONE, Method: PREINCUBATION); “inactive; negative” (Strain/Indicator: TA1537, Metabolic Activation: RAT, LIVER, S-9, AROCLOR 1254 (10%), Method: PREINCUBATION).
In the case of `[N-]=[N+]=Nc1ccc2c(Nc3ccc(C(=O)O)cc3)c3ccccc3nc2c1`, under setting [1], the mutagenic call is “active; positive”.
As to `CCCCCC(=O)O[C@]1(C(C)=O)CC[C@H]2[C@@H]3CCC4=CC(=O)CC[C@@H]4[C@H]3CC[C@@]21C`, the mutagenic call was “inactive; negative” (Strain/Indicator: TA98, Metabolic Activation: NONE, Method: STANDARD PLATE); “inactive; negative” (Strain/Indicator: TA98, Metabolic Activation: RAT, LIVER, S-9, AROCLOR 1254, Method: STANDARD PLATE); “inactive; negative” (Strain/Indicator: TA100, Metabolic Activation: NONE, Method: STANDARD PLATE); “inactive; negative” (Strain/Indicator: TA100, Metabolic Activation: RAT, LIVER, S-9, AROCLOR 1254, Method: STANDARD PLATE); “inactive; negative” (Strain/Indicator: TA1535, Metabolic Activation: NONE, Method: STANDARD PLATE); “inactive; negative” (Strain/Indicator: TA1535, Metabolic Activation: RAT, LIVER, S-9, AROCLOR 1254, Method: STANDARD PLATE). In addition, the mutagenic call is, setting by setting: under setting [1], “inactive; negative”; (Strain/Indicator: TA1537, Metabolic Activation: RAT, LIVER, S-9, AROCLOR 1254, Method: STANDARD PLATE) “inactive; negative”; (Strain/Indicator: TA1538, Metabolic Activation: NONE, Method: STANDARD PLATE) “inactive; negative”; (Strain/Indicator: TA1538, Metabolic Activation: RAT, LIVER, S-9, AROCLOR 1254, Method: STANDARD PLATE) “inactive; negative”.
